Measurements reported in patent US4742047A, “Semi-synthetic peptide antibiotics” (Bristol-Myers Company, priority 1986, dated 1988).

How the values were obtained:
P388 leukemia = assay: Antitumor effect against in vivo murine transplantable P388 leukemia; parameters: species or system mice
Experimental: (§1) Antitumor activity of representative compounds of the present invention was determined using in vivo murine transplantable P388 leukemia and B16 melanoma models.
P388 leukemia: female CDF1 and male BDF1 mice were inoculated by intraperitoneal injection of 0.8 ml diluted ascitic fluid containing 10^6 cells.
(§2) Test materials were dissolved in 0.9% saline containing 10% dimethyl sulfoxide and graded doses of them were administered to mice intraperitoneally 24 hrs after tumor implantation. Two dosing schedules were used for the p388 leukemia experiment: once daily on day 1 through day 3 (QD 1→3); and once daily on day 1 through day 9 (QD 1→9). The QD 1→9 schedule was used for the B16 melanoma experiment.
(§3) Antitumor activity is evaluated as the increase in mediam survival time (MST) of treated (T) and control (C) animals for various dosage regimens expressed as a percentage ratio (T/C %=MST of treated.div.MST of control×100). For both in vivo P388 leukemia and in vivo B16 melanoma models, values for percentage ratios of 125 and above indicate significant antitumor effect.

ddy mice = details: single intraperitoneal administration
Experimental: The acute toxicity for compounds of Examples 1, 2, and 3 was determined in ddy mice by single intraperitoneal administration.

B16 melanoma = assay: Antitumor effect against in vivo murine B16 melanoma; parameters: species or system mice; details: QD 1→9 ip
Experimental: as §1
B16 melanoma; male BDF1 mice were implanted with 0.5 ml of a 10% tumor brei intraperitoneally.
as §2, §3

Structure (SMILES): CCCCCCCCOc1ccc(C(=O)N[C@H](C(=O)NC2CC(O)CCNC(=O)/C=C/C(C)NC2=O)[C@@H](C)O)cc1 (stereo partly drawn) [Example 6, p-n-Octyloxybenzoyl-III]
- MST (% T/C) (P388 leukemia; 0.13 mg/kg/day, QD 1→9 ip): 140 % T/C
- MST (% T/C) (P388 leukemia; 0.25 mg/kg/day, QD 1→9 ip): 150 % T/C
- MST (% T/C) (P388 leukemia; 0.5 mg/kg/day, QD 1→9 ip): 155 % T/C
- MST (% T/C) (P388 leukemia; 0.63 mg/kg/day, QD 1→9 ip): 120 % T/C
- MST (% T/C) (P388 leukemia; 1 mg/kg/day, QD 1→3 ip): 150 % T/C
- MST (% T/C) (P388 leukemia; 1 mg/kg/day, QD 1→9 ip): Tox
- MST (% T/C) (P388 leukemia; 3 mg/kg/day, QD 1→3 ip): Tox
- MST (% T/C) (P388 leukemia; .3 mg/kg/day, QD 1→3 ip): 125 % T/C

Structure (SMILES): CCCCCCCCCCCCCC(=O)N[C@H](C(=O)NC1CC(O)CCNC(=O)/C=C/C(C)NC1=O)[C@@H](C)O (stereo partly drawn) [Example 3, n-Tetradecanoyl-III]
- LD50 (ddy mice): > 25 mg/kg
- MST (% T/C) (B16 melanoma; 1 mg/kg/day): 116 % T/C
- MST (% T/C) (B16 melanoma; 2 mg/kg/day): 124 % T/C
- MST (% T/C) (B16 melanoma; 4 mg/kg/day): 145 % T/C
- MST (% T/C) (B16 melanoma; .25 mg/kg/day): 113 % T/C
- MST (% T/C) (B16 melanoma; .5 mg/kg/day): 113 % T/C
- MST (% T/C) (P388 leukemia; 0.13 mg/kg/day, QD 1→9 ip): 118 % T/C
- MST (% T/C) (P388 leukemia; 0.25 mg/kg/day, QD 1→9 ip): 132 % T/C
- MST (% T/C) (P388 leukemia; 0.5 mg/kg/day, QD 1→9 ip): 132 % T/C
- MST (% T/C) (P388 leukemia; 1 mg/kg/day, QD 1→3 ip): 127 % T/C
- MST (% T/C) (P388 leukemia; 1 mg/kg/day, QD 1→9 ip): 150 % T/C
- MST (% T/C) (P388 leukemia; 2 mg/kg/day, QD 1→9 ip): 150 % T/C
- MST (% T/C) (P388 leukemia; 3 mg/kg/day, QD 1→3 ip): 132 % T/C
- MST (% T/C) (P388 leukemia; 4 mg/kg/day, QD 1→9 ip): 159 % T/C
- MST (% T/C) (P388 leukemia; 10 mg/kg/day, QD 1→3 ip): 55 % T/C

Structure (SMILES): CCCCCCCCC/C=C/C(=O)N[C@H](C(=O)NC1CC(O)CCNC(=O)/C=C/C(C)NC1=O)[C@@H](C)O (relative stereo) [Example 4, trans-2-Dodecenoyl-III]
- MST (% T/C) (P388 leukemia; 1 mg/kg/day, QD 1→3 ip): 132 % T/C
- MST (% T/C) (P388 leukemia; 3 mg/kg/day, QD 1→3 ip): 118 % T/C
- MST (% T/C) (P388 leukemia; .3 mg/kg/day, QD 1→3 ip): 118 % T/C

Structure (SMILES): CCCCCCCCCCCC(=O)N[C@H](C(=O)NC1CC(O)CCNC(=O)/C=C/C(C)NC1=O)[C@@H](C)O (stereo partly drawn) [Example 1, n-Dodecanoyl-III]
- LD50 (ddy mice): 27 mg/kg
- MST (% T/C) (B16 melanoma; 1 mg/kg/day): 121 % T/C
- MST (% T/C) (B16 melanoma; 2 mg/kg/day): 139 % T/C
- MST (% T/C) (B16 melanoma; 4 mg/kg/day): 155 % T/C
- MST (% T/C) (B16 melanoma; .25 mg/kg/day): 107 % T/C
- MST (% T/C) (B16 melanoma; .5 mg/kg/day): 113 % T/C
- MST (% T/C) (P388 leukemia; 0.13 mg/kg/day, QD 1→9 ip): 127 % T/C
- MST (% T/C) (P388 leukemia; 0.25 mg/kg/day, QD 1→9 ip): 132 % T/C
- MST (% T/C) (P388 leukemia; 0.5 mg/kg/day, QD 1→9 ip): 145 % T/C
- MST (% T/C) (P388 leukemia; 1 mg/kg/day, QD 1→3 ip): 130 % T/C
- MST (% T/C) (P388 leukemia; 1 mg/kg/day, QD 1→9 ip): 150 % T/C
- MST (% T/C) (P388 leukemia; 2 mg/kg/day, QD 1→9 ip): 159 % T/C
- MST (% T/C) (P388 leukemia; 3 mg/kg/day, QD 1→3 ip): 145 % T/C
- MST (% T/C) (P388 leukemia; 4 mg/kg/day, QD 1→9 ip): 173 % T/C
- MST (% T/C) (P388 leukemia; 10 mg/kg/day, QD 1→3 ip): 155 % T/C

Structure (SMILES): CCCCCCCCCCCCCCC(O)C(=O)N[C@H](C(=O)NC1CC(O)CCNC(=O)/C=C/C(C)NC1=O)[C@@H](C)O (stereo partly drawn) [Example 5, 2-Hydroxy-hexadecanoyl-III]
- MST (% T/C) (P388 leukemia; 1 mg/kg/day, QD 1→3 ip): 118 % T/C
- MST (% T/C) (P388 leukemia; 3 mg/kg/day, QD 1→3 ip): 132 % T/C
- MST (% T/C) (P388 leukemia; 10 mg/kg/day, QD 1→3 ip): 132 % T/C

Structure (SMILES): CCCCCCCC=CC=CC(=O)NC(C(=O)NC1CC(O)CCNC(=O)C=CC(C)NC1=O)C(C)O (stereo not drawn) [BU-2867T A, reference compound]
- MST (% T/C) (B16 melanoma; 1 mg/kg/day): 116 % T/C
- MST (% T/C) (B16 melanoma; 2 mg/kg/day): Tox
- MST (% T/C) (B16 melanoma; .13 mg/kg/day): 97 % T/C
- MST (% T/C) (B16 melanoma; .25 mg/kg/day): 100 % T/C
- MST (% T/C) (B16 melanoma; .5 mg/kg/day): 113 % T/C
- MST (% T/C) (P388 leukemia; 0.13 mg/kg/day, QD 1→9 ip): 130 % T/C
- MST (% T/C) (P388 leukemia; 0.25 mg/kg/day, QD 1→9 ip): 150 % T/C
- MST (% T/C) (P388 leukemia; 0.5 mg/kg/day, QD 1→9 ip): 155 % T/C
- MST (% T/C) (P388 leukemia; 0.63 mg/kg/day, QD 1→9 ip): 110 % T/C
- MST (% T/C) (P388 leukemia; 1 mg/kg/day, QD 1→3 ip): 145 % T/C
- MST (% T/C) (P388 leukemia; 1 mg/kg/day, QD 1→9 ip): 190 % T/C
- MST (% T/C) (P388 leukemia; 2 mg/kg/day, QD 1→9 ip): Tox
- MST (% T/C) (P388 leukemia; 3 mg/kg/day, QD 1→3 ip): Tox
- MST (% T/C) (P388 leukemia; .3 mg/kg/day, QD 1→3 ip): 130 % T/C

Structure (SMILES): CCCCCCCCCC=CC=CC(=O)NC(C(=O)NC1CC(O)CCNC(=O)C=CC(C)NC1=O)C(C)O (stereo not drawn) [BU-2867T C, reference compound]
- MST (% T/C) (B16 melanoma; 1 mg/kg/day): 113 % T/C
- MST (% T/C) (B16 melanoma; 2 mg/kg/day): 132 % T/C
- MST (% T/C) (B16 melanoma; 4 mg/kg/day): Tox
- MST (% T/C) (B16 melanoma; .13 mg/kg/day): 103 % T/C
- MST (% T/C) (B16 melanoma; .25 mg/kg/day): 103 % T/C
- MST (% T/C) (B16 melanoma; .5 mg/kg/day): 103 % T/C
- MST (% T/C) (P388 leukemia; 0.13 mg/kg/day, QD 1→9 ip): 130 % T/C
- MST (% T/C) (P388 leukemia; 0.25 mg/kg/day, QD 1→9 ip): 160 % T/C
- MST (% T/C) (P388 leukemia; 0.5 mg/kg/day, QD 1→9 ip): 155 % T/C
- MST (% T/C) (P388 leukemia; 0.63 mg/kg/day, QD 1→9 ip): 115 % T/C
- MST (% T/C) (P388 leukemia; 1 mg/kg/day, QD 1→3 ip): 124 % T/C
- MST (% T/C) (P388 leukemia; 1 mg/kg/day, QD 1→9 ip): 170 % T/C
- MST (% T/C) (P388 leukemia; 2 mg/kg/day, QD 1→9 ip): 205 % T/C
- MST (% T/C) (P388 leukemia; 3 mg/kg/day, QD 1→3 ip): 129 % T/C
- MST (% T/C) (P388 leukemia; 4 mg/kg/day, QD 1→9 ip): 65 % T/C
- MST (% T/C) (P388 leukemia; 10 mg/kg/day, QD 1→3 ip): 57 % T/C

Structure (SMILES): CCCCCCCCCC(=O)N[C@H](C(=O)NC1CC(O)CCNC(=O)/C=C/C(C)NC1=O)[C@@H](C)O (stereo partly drawn) [Example 2, n-Decanoyl-III]
- LD50 (ddy mice): 50 mg/kg
- MST (% T/C) (P388 leukemia; 0.13 mg/kg/day, QD 1→9 ip): 109 % T/C
- MST (% T/C) (P388 leukemia; 0.25 mg/kg/day, QD 1→9 ip): 123 % T/C
- MST (% T/C) (P388 leukemia; 0.5 mg/kg/day, QD 1→9 ip): 123 % T/C
- MST (% T/C) (P388 leukemia; 1 mg/kg/day, QD 1→3 ip): 123 % T/C
- MST (% T/C) (P388 leukemia; 1 mg/kg/day, QD 1→9 ip): 127 % T/C
- MST (% T/C) (P388 leukemia; 2 mg/kg/day, QD 1→9 ip): 145 % T/C
- MST (% T/C) (P388 leukemia; 3 mg/kg/day, QD 1→3 ip): 127 % T/C
- MST (% T/C) (P388 leukemia; 4 mg/kg/day, QD 1→9 ip): 155 % T/C
- MST (% T/C) (P388 leukemia; 10 mg/kg/day, QD 1→3 ip): 64 % T/C

Structure (SMILES): CCCCCCCCCCCCCCCC(=O)N[C@H](C(=O)NC1CC(O)CCNC(=O)/C=C/C(C)NC1=O)[C@@H](C)O (stereo partly drawn) [Example 10, Palmitoyl-L-Threonyl-II]
- MST (% T/C) (P388 leukemia; 1 mg/kg/day, QD 1→3 ip): 114 % T/C
- MST (% T/C) (P388 leukemia; 3 mg/kg/day, QD 1→3 ip): 119 % T/C
- MST (% T/C) (P388 leukemia; 10 mg/kg/day, QD 1→3 ip): 138 % T/C

Structure (SMILES): CCCCCC=CCCC=CC=CC(=O)NC(C(=O)NC1CC(O)CCNC(=O)C=CC(C)NC1=O)C(C)O (stereo not drawn) [BU-2867T B, reference compound]
- MST (% T/C) (B16 melanoma; 1 mg/kg/day): 126 % T/C
- MST (% T/C) (B16 melanoma; 2 mg/kg/day): Tox
- MST (% T/C) (B16 melanoma; .13 mg/kg/day): 108 % T/C
- MST (% T/C) (B16 melanoma; .25 mg/kg/day): 111 % T/C
- MST (% T/C) (B16 melanoma; .5 mg/kg/day): 118 % T/C
- MST (% T/C) (P388 leukemia; 0.13 mg/kg/day, QD 1→9 ip): 125 % T/C
- MST (% T/C) (P388 leukemia; 0.25 mg/kg/day, QD 1→9 ip): 130 % T/C
- MST (% T/C) (P388 leukemia; 0.5 mg/kg/day, QD 1→9 ip): 145 % T/C
- MST (% T/C) (P388 leukemia; 0.63 mg/kg/day, QD 1→9 ip): 130 % T/C
- MST (% T/C) (P388 leukemia; 1 mg/kg/day, QD 1→9 ip): 170 % T/C
- MST (% T/C) (P388 leukemia; 2 mg/kg/day, QD 1→9 ip): 180 % T/C
- MST (% T/C) (P388 leukemia; 4 mg/kg/day, QD 1→9 ip): Tox
